Assay results reported in patent publication US6586604B2, “Tricyclic amine derivatives” (Daiichi Pharmaceutical Co., Ltd., priority 1996, dated 2003).
≈ marks a conversion by molar mass, not a printed value.

How the values were obtained:
E. coil, NIHJ = test: Antimicrobial activity (MIC), standard method of the Japan Chemotherapeutic Society; type: cell-based; conditions: for MIC: read-out: minimum inhibitory concentration (MIC)
Protocol: (§1) The antimicrobial activity of the compounds according to the present invention was determined in accordance with the standard method specified by the Japan Chemotherapeutic Society.

Pr. Mirabilis, IFO-3849 = test: as above; type: cell-based; conditions: for MIC: Proteus mirabilis, IFO3849, read-out: minimum inhibitory concentration (MIC)
Protocol: as §1

Pr. vulgaris, 08601 = test: as above; type: cell-based; conditions: for MIC: Proteus vulgaris, read-out: minimum inhibitory concentration (MIC)
Protocol: as §1

Ps. Aeruginosa, 32104 = test: as above; type: cell-based; conditions: for MIC: Pseudomonas aeruginosa, read-out: minimum inhibitory concentration (MIC)
Protocol: as §1

Ps. Aeruginosa, 32121 = test: as above; type: cell-based; conditions: for MIC: Pseudomonas aeruginosa, read-out: minimum inhibitory concentration (MIC)
Protocol: as §1

[1] = tested on: Ps. Maltophilia, 11D-1275; test: as above; type: cell-based; conditions: for MIC: Stenotrophomonas maltophilia, read-out: minimum inhibitory concentration (MIC)
Protocol: as §1

S. aureaus, 209P = test: as above; type: cell-based; conditions: for MIC: read-out: minimum inhibitory concentration (MIC)
Protocol: as §1

S. aureus, 870307 = test: as above; type: cell-based; conditions: for MIC: Staphylococcus aureus, read-out: minimum inhibitory concentration (MIC)
Protocol: as §1

S. epidermidis, 56500 = test: as above; type: cell-based; conditions: for MIC: Staphylococcus epidermidis, read-out: minimum inhibitory concentration (MIC)
Protocol: as §1

S. flexneli, 2A 5503 = test: as above; type: cell-based; conditions: for MIC: read-out: minimum inhibitory concentration (MIC); for minimum inhibitory concentration (MIC): S. flexneli, 2A 5503
Protocol: as §1

S. pneumoniae, J24 = test: as above; type: cell-based; conditions: for MIC: Streptococcus pneumoniae, read-out: minimum inhibitory concentration (MIC)
Protocol: as §1

Ser. Marcescens, 10100 = test: as above; type: cell-based; conditions: for MIC: Serratia marcescens, read-out: minimum inhibitory concentration (MIC)
Protocol: as §1

[2] = tested on: Str. Faecalis, ATCC-19433; test: as above; type: cell-based; conditions: for MIC: Enterococcus faecalis, ATCC19433, read-out: minimum inhibitory concentration (MIC)
Protocol: as §1

Str. Pyogenes, G-36 = test: as above; type: cell-based; conditions: for MIC: Streptococcus pyogenes, read-out: minimum inhibitory concentration (MIC)
Protocol: as §1

Structure (SMILES) | MIC (E. coil, NIHJ) [µg/mL] | MIC (Pr. Mirabilis, IFO-3849) [µg/mL] | MIC (Pr. vulgaris, 08601) [µg/mL] | MIC (Ps. Aeruginosa, 32104) [µg/mL] | MIC (Ps. Aeruginosa, 32121) [µg/mL] | MIC [1] [µg/mL] | minimum inhibitory concentration (MIC) (E. coil, NIHJ) | minimum inhibitory concentration (MIC) (Pr. Mirabilis, IFO-3849) [µg/mL] | minimum inhibitory concentration (MIC) (Pr. vulgaris, 08601) | minimum inhibitory concentration (MIC) (Ps. Aeruginosa, 32104) [µg/mL] | minimum inhibitory concentration (MIC) (Ps. Aeruginosa, 32121) [µg/mL] | minimum inhibitory concentration (MIC) [1] [µg/mL] | minimum inhibitory concentration (MIC) (S. aureaus, 209P) | minimum inhibitory concentration (MIC) (S. aureus, 870307) [µg/mL] | minimum inhibitory concentration (MIC) (S. epidermidis, 56500) | minimum inhibitory concentration (MIC) (S. flexneli, 2A 5503) | minimum inhibitory concentration (MIC) (S. pneumoniae, J24) | minimum inhibitory concentration (MIC) (Ser. Marcescens, 10100) [µg/mL] | minimum inhibitory concentration (MIC) [2] [µg/mL] | minimum inhibitory concentration (MIC) (Str. Pyogenes, G-36) | also measured
Nc1c(F)c(N2CC3CC4CC4(N)C3C2)c(F)c2c1c(=O)c(C(=O)O)cn2C1CC1 (stereo not drawn) [Example 1, 5-Amino-7-(1-amino-4-azatricyclo[6.1.0.0^2,6]-nonan-4-yl)-1-cyclopropyl-6,8-difluoro-1,4-dihydro-4-oxoquinoline-3-carboxylic Acid] | ≤ 0.003 | 0.05 (≈ 0.12 µM) | 0.1 (≈ 0.24 µM) | 0.2 (≈ 0.48 µM) | 0.2 (≈ 0.48 µM) | 0.05 (≈ 0.12 µM) | – | – | – | – | – | – | – | – | – | – | – | – | – | – | MIC (S. aureaus, 209P): ≤ 0.003 µg/mL; MIC (S. aureus, 870307): 0.1 µg/mL (≈ 0.24 µM); MIC (S. epidermidis, 56500): 0.006 µg/mL (≈ 0.0144 µM); MIC (S. flexneli, 2A 5503): ≤ 0.003 µg/mL; MIC (S. pneumoniae, J24): ≤ 0.003 µg/mL; MIC (Ser. Marcescens, 10100): 0.1 µg/mL (≈ 0.24 µM); MIC [2]: 0.025 µg/mL (≈ 0.06 µM); MIC (Str. Pyogenes, G-36): 0.006 µg/mL (≈ 0.0144 µM); melting point: 197 to 202 °C (dec.)
C[C@H]1COc2c(N3C[C@H]4CC5C[C@]5(N)[C@H]4C3)c(F)cc3c(=O)c(C(=O)O)cn1c23 (stereo partly drawn) [Example 2, 10-{(1R,2R,6S)-1-Amino-4-azatricyclo[6.1.0.0^2,6]nonan-4-yl}-9-fluoro-2,3-dihydro-3-(S)-methyl-7-oxo-7H-pyrido[1.2.3-de][1,4]benzoxazine-6-carboxylic Acid] | – | – | – | – | – | – | ≦0.003 μg/ml | 0.10 (≈ 0.25 µM) | 0.025 µg/mL (≈ 0.0626 µM) | 0.20 (≈ 0.501 µM) | 0.05 (≈ 0.125 µM) | 0.20 (≈ 0.501 µM) | 0.006 µg/mL (≈ 0.015 µM) | 0.20 (≈ 0.501 µM) | 0.025 µg/mL (≈ 0.0626 µM) | 0.006 µg/mL (≈ 0.015 µM) | 0.013 µg/mL (≈ 0.0325 µM) | 0.05 (≈ 0.125 µM) | 0.05 (≈ 0.125 µM) | 0.013 µg/mL (≈ 0.0325 µM) | –
COc1c(N2CC3CC4CC4(N)C3C2)c(F)cc2c(=O)c(C(=O)O)cn([C@@H]3C[C@@H]3F)c12 (stereo partly drawn) [Example 5, 7-{1-Amino-4-azatricyclo[6.1.0.0^2,6]nonan-4-yl}-6-fluoro-1-[2-(S)-fluoro-1-(R)-cyclopropyl]-1,4-dihydro-8-methoxy-4-oxoquinoline-3-carboxylic Acid] | ≤ 0.003 | ≤ 0.003 | 0.006 (≈ 0.0139 µM) | 0.1 (≈ 0.232 µM) | 0.05 (≈ 0.116 µM) | 0.05 (≈ 0.116 µM) | – | – | – | – | – | – | – | – | – | – | – | – | – | – | MIC (S. aureaus, 209P): ≤ 0.003 µg/mL; MIC (S. aureus, 870307): 0.013 µg/mL (≈ 0.0301 µM); MIC (S. epidermidis, 56500): ≤ 0.003 µg/mL; MIC (S. flexneli, 2A 5503): ≤ 0.003 µg/mL; MIC (S. pneumoniae, J24): ≤ 0.003 µg/mL; MIC (Ser. Marcescens, 10100): 0.05 µg/mL (≈ 0.116 µM); MIC [2]: 0.025 µg/mL (≈ 0.0579 µM); MIC (Str. Pyogenes, G-36): ≤ 0.003 µg/mL; melting point: 146 to 159 °C (dec.)
Cc1c(N2CC3CC4CC4(N)C3C2)c(F)c(N)c2c(=O)c(C(=O)O)cn([C@@H]3C[C@@H]3F)c12 (stereo partly drawn) [Example 6, 5-Amino-7-{1-amino-4-azatricyclo[6.1.0.0^2,6]nonan-4-yl}-6-fluoro-1-[2-(S)-fluoro-1-(R)-cyclopropyl]-1,4-dihydro-8-methyl-4-oxoquinoline-4-carboxylic Acid] | – | – | – | – | – | – | ≦0.003 μg/ml | 0.025 (≈ 0.0581 µM) | 0.025 µg/mL (≈ 0.0581 µM) | 0.10 (≈ 0.232 µM) | 0.025 (≈ 0.0581 µM) | 0.025 (≈ 0.0581 µM) | ≦0.003 μg/ml | 0.05 (≈ 0.116 µM) | ≦0.003 μg/ml | ≦0.003 μg/ml | ≦0.003 μg/ml | 0.05 (≈ 0.116 µM) | 0.013 (≈ 0.0302 µM) | ≦0.003 μg/ml | –
Cc1c(N2CC3CC4CC4(N)C3C2)c(F)cc2c(=O)c(C(=O)O)cn([C@@H]3C[C@@H]3F)c12 (stereo partly drawn) [Example 7, 7-(1-Amino-4-azabicyclo[6.1.0.0^2,6]nonan-4-yl)-6-fluoro-1-[2-(S)-fluoro-1-(R)-cyclopropyl]-8-methyl-1,4-dihydro-4-oxoquinoline-3-carboxylic Acid] | – | – | – | – | – | – | ≦0.003 μg/ml | 0.013 (≈ 0.0313 µM) | ≦0.003 μg/ml | 0.05 (≈ 0.12 µM) | 0.025 (≈ 0.0602 µM) | 0.025 (≈ 0.0602 µM) | ≦0.003 μg/ml | 0.013 (≈ 0.0313 µM) | ≦0.003 μg/ml | ≦0.003 μg/ml | ≦0.003 μg/ml | 0.025 (≈ 0.0602 µM) | 0.013 (≈ 0.0313 µM) | ≦0.003 μg/ml | –
